Experimental data published in ChEMBL document CHEMBL1201862, “PubChem BioAssay data set” (2004).
Values joined by “and” are separate entries in the source; they are usually repeats but may differ in a detail not shown here. Identical values can stand only once.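 Tested at 5 concentrations; 48 h exposure; 96-well plates; endpoints linearly interpolated, else capped at highest concentration. GI50 = concentration required for 50% inhibition of growth.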 Active and inactive are the calls of the source. Rule as the data show it: active = GI50 up to about 1.1 µM and inactive = higher.

Columns and labels:
Experiment in all cases: inhibition of tumour cell growth, NCI panel, 48 h
[1] = system: PC-3
[2] = system: SW-620
[3] = system: OVCAR-5
[4] = system: MDA-MB-435
[5] = system: MDA-N
[6] = system: MCF7
[7] = system: EKVX
[8] = system: BT-549
[9] = system: DMS-114
[10] = system: NCI/ADR-RES
[11] = system: MOLT-4
[12] = system: SK-MEL-2
[13] = system: SF-268
[14] = system: DU-145
[15] = system: XF498
[16] = system: LOX IMVI
[17] = system: Malme-3M
[18] = system: KM-20L2
[19] = system: OVCAR-3
[20] = system: NCI-H23
[21] = system: RPMI-8226
[22] = system: NCI-H460
[23] = system: SR
[24] = system: K562
[25] = system: MDA-MB-231
[26] = system: M14
[27] = system: RXF 631
[28] = system: KM12
[29] = system: T47D
[30] = system: SNB-78
[31] = system: OVCAR-8
[32] = system: LXFL 529
[33] = system: Hs-578T
[34] = system: DMS-273
[35] = system: UACC-62
[36] = system: A549
[37] = system: HT-29
[38] = system: RXF 393
[39] = system: HCT-116
[40] = system: UACC-257
[41] = system: HCT-15
[42] = system: NCI-H226
[43] = system: HCC 2998
[44] = system: SK-OV-3
[45] = system: SN12C
[46] = system: UO-31
[47] = system: HOP-18
[48] = system: CAKI-1
[49] = system: A498
[50] = system: NCI-H522
[51] = system: CCRF-CEM
[52] = system: HL-60
[53] = system: COLO 205
[54] = system: 786-0
[55] = system: SF-295
[56] = system: DLD-1
[57] = system: ACHN
[58] = system: HOP-92
[59] = system: SK-MEL-5
[60] = system: M19-MEL
[61] = system: U-251
[62] = system: SNB-75
[63] = system: OVCAR-4
[64] = system: TK-10
[65] = system: SNB-19
[66] = system: SK-MEL-28
[67] = system: IGROV-1
[68] = system: HOP-62
[69] = system: SF-539

SMILES: CC(C)(O)/C=C/C(=O)[C@](C)(O)[C@H]1[C@H](O)C[C@@]2(C)[C@@H]3CC=C4[C@@H](C=C(O)C(=O)C4(C)C)[C@]3(C)C(=O)C[C@]12C [CUCURBITACIN I]
- GI50 [1]: 0.0238 µM (active)
- GI50 [2]: 334 nM (active) and 541 nM (active)
- GI50 [3]: 3.03 µM (inactive) and 3.24 µM (inactive)
- GI50 [4]: < 0.01 µM (active)
- GI50 [5]: < 0.01 µM (active)
- GI50 [6]: 0.0245 µM (active)
- GI50 [7]: 975 nM (active) and 1.27 µM (inactive)
- GI50 [8]: 0.0147 µM (active)
- GI50 [9]: 1.21 µM (inactive) and 698 nM (active)
- GI50 [10]: 0.126 µM (active)
- GI50 [11]: 1.88 µM (inactive) and 1.61 µM (inactive)
- GI50 [12]: 442 nM (active) and 237 nM (active)
- GI50 [13]: 475 nM (active) and 251 nM (active)
- GI50 [14]: < 0.01 µM (active)
- GI50 [15]: 284 nM (active) and 330 nM (active)
- GI50 [16]: 430 nM (active) and 238 nM (active)
- GI50 [17]: 536 nM (active) and 329 nM (active)
- GI50 [18]: 482 nM (active) and 318 nM (active)
- GI50 [19]: 395 nM (active) and 783 nM (active)
- GI50 [20]: 2.38 µM (inactive) and 1.33 µM (inactive)
- GI50 [21]: 281 nM (active) and 318 nM (active)
- GI50 [22]: 288 nM (active) and 543 nM (active)
- GI50 [23]: 644 nM (active) and 410 nM (active)
- GI50 [24]: 841 nM (active) and 504 nM (active)
- GI50 [25]: 0.0223 µM (active)
- GI50 [26]: 548 nM (active) and 303 nM (active)
- GI50 [27]: 372 nM (active) and 536 nM (active)
- GI50 [28]: 1.9 µM (inactive) and 1.12 µM (inactive)
- GI50 [29]: 0.104 µM (active)
- GI50 [30]: 303 nM (active) and 528 nM (active)
- GI50 [31]: 1.3 µM (inactive) and 2.13 µM (inactive)
- GI50 [32]: 339 nM (active) and 513 nM (active)
- GI50 [33]: 0.0485 µM (active)
- GI50 [34]: 243 nM (active) and 218 nM (active)
- GI50 [35]: 805 nM (active) and 607 nM (active)
- GI50 [36]: 493 nM (active) and 271 nM (active)
- GI50 [37]: 538 nM (active) and 321 nM (active)
- GI50 [38]: 225 nM (active) and 440 nM (active)
- GI50 [39]: 631 nM (active) and 363 nM (active)
- GI50 [40]: 324 nM (active) and 555 nM (active)

SMILES: O=P1(NCCCl)OCCCN1CCCl (stereo not drawn) [IFOSFAMIDE]
- GI50 [41]: 376 µM
- GI50 [1]: > 500 µM (inactive)
- GI50 [2]: 340 µM (inactive)
- GI50 [3]: 407 µM (inactive)
- GI50 [42]: 393 µM (inactive)
- GI50 [4]: > 500 µM (inactive)
- GI50 [5]: > 500 µM (inactive)
- GI50 [6]: 361 µM (inactive)
- GI50 [7]: 352 µM (inactive)
- GI50 [8]: > 500 µM (inactive)
- GI50 [43]: 346 µM (inactive)
- GI50 [9]: 399 µM (inactive)
- GI50 [44]: 379 µM (inactive)
- GI50 [45]: 388 µM (inactive)
- GI50 [10]: 410 µM (inactive)
- GI50 [46]: 386 µM (inactive)
- GI50 [11]: 262 µM (inactive)
- GI50 [47]: 104 µM (inactive)
- GI50 [12]: 382 µM (inactive)
- GI50 [48]: 287 µM (inactive)
- GI50 [49]: 428 µM (inactive)
- GI50 [50]: 300 µM (inactive)
- GI50 [13]: 351 µM (inactive)
- GI50 [14]: > 500 µM (inactive)
- GI50 [51]: 207 µM (inactive)
- GI50 [15]: 381 µM (inactive)
- GI50 [52]: 320 µM (inactive)
- GI50 [16]: 311 µM (inactive)
- GI50 [17]: 330 µM (inactive)
- GI50 [18]: 385 µM (inactive)
- GI50 [19]: 365 µM (inactive)
- GI50 [20]: 417 µM (inactive)
- GI50 [21]: 332 µM (inactive)
- GI50 [22]: 394 µM (inactive)
- GI50 [23]: > 500 µM (inactive)
- GI50 [24]: 373 µM (inactive)
- GI50 [25]: > 500 µM (inactive)
- GI50 [26]: > 467 µM (inactive)
- GI50 [53]: 394 µM (inactive)
- GI50 [28]: 406 µM (inactive)
- GI50 [54]: > 428 µM (inactive)
- GI50 [55]: 374 µM (inactive)
- GI50 [29]: > 500 µM (inactive)
- GI50 [56]: 380 µM (inactive)
- GI50 [57]: > 479 µM (inactive)
- GI50 [58]: 333 µM (inactive)
- GI50 [30]: 384 µM (inactive)
- GI50 [59]: 398 µM (inactive)
- GI50 [31]: 388 µM (inactive)
- GI50 [32]: 498 µM (inactive)
- GI50 [33]: > 500 µM (inactive)
- GI50 [34]: 364 µM (inactive)
- GI50 [35]: 363 µM (inactive)
- GI50 [60]: 395 µM (inactive)
- GI50 [61]: 310 µM (inactive)
- GI50 [62]: 334 µM (inactive)
- GI50 [63]: 415 µM (inactive)
- GI50 [64]: > 471 µM (inactive)
- GI50 [65]: 361 µM (inactive)
- GI50 [36]: 401 µM (inactive)
- GI50 [37]: 406 µM (inactive)
- GI50 [66]: 385 µM (inactive)
- GI50 [67]: 433 µM (inactive)
- GI50 [68]: 341 µM (inactive)
- GI50 [38]: 376 µM (inactive)
- GI50 [69]: 355 µM (inactive)
- GI50 [39]: 401 µM (inactive)
- GI50 [40]: 345 µM (inactive)
